The values that follow come from article PMC3863386 (Journal of the American Chemical Society, 2013).

For orientation: Kd means the constant that tells how readily two partners part at equilibrium.

One assay has as its target C-LsrR D243A (Escherichia coli, UniProt P76141, D243A). The settings on record: compared to wild type C-LsrR.
Another assay concerns the target C-LsrR K288A (Escherichia coli, UniProt P76141, K288A). The settings on record: compared to wild type C-LsrR.
The next assay addresses C-LsrR Q215A (Escherichia coli, UniProt P76141, Q215A). The note with it: compared to wild type C-LsrR.
A further assay concerns the target C-LsrR T220A (Escherichia coli, UniProt P76141, T220A). The note with it: compared to wild type C-LsrR.
For assay [1], the target named is T1, LsrR (Escherichia coli, UniProt P76141). The note with it: for ΔH / ΔS: ITC titration of LsrR. On the technique in general: Isothermal titration calorimetry measures the heat released or taken up as one component is titrated into another.
Assay [2] addresses T1, LsrR. The note with it: compared to LsrR alone.
Assay [3] concerns LsrR. The note with it: cited from earlier work.
In another assay the target is C-LsrR (Escherichia coli, UniProt P76141). Kind of assay: biochemical. The note with it: LsrR-binding affinity (Kd), approximate, rounded summary value.
The subject of a further assay is E. coli biofilms. The settings on record: simultaneous treatment with the antibiotic gentamicin; cited from earlier work.
The subject of assay [4] is QS signaling in S. typhimurium. The note with it: after in vivo phosphorylation by LsrK; cited from earlier work.
For another assay, the system named is QS signaling in E. coli. The note with it: after in vivo phosphorylation by LsrK; cited from earlier work.

Where two headings read alike, the source gives them in different places.

T1 sequence (P76141 whole entry): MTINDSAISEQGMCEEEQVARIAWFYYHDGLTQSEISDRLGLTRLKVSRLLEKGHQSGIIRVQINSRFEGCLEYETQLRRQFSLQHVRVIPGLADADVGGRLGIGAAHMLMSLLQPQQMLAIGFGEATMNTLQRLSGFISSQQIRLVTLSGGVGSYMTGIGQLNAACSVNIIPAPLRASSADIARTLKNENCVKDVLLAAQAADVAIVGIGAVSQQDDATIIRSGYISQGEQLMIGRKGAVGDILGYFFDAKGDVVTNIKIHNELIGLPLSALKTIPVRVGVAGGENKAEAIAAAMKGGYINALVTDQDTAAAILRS
C-LsrR T220A, sequence (P76141 53-317 T220A): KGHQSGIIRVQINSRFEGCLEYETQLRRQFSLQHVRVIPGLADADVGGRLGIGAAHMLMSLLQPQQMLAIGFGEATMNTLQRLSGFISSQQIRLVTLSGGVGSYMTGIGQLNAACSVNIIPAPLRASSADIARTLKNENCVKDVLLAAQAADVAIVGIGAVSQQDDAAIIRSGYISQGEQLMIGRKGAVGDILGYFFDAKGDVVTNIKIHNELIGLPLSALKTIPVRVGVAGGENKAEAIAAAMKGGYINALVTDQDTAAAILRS
C-LsrR D243A, sequence (P76141 53-317 D243A): as the sequence (P76141 53-317 T220A) above, with A168T, D191A counted along it
C-LsrR Q215A, sequence (P76141 53-317 Q215A): as the sequence (P76141 53-317 T220A) above, with Q163A, A168T counted along it
C-LsrR K288A, sequence (P76141 53-317 K288A): as the sequence (P76141 53-317 T220A) above, with A168T, K236A counted along it
C-LsrR, sequence (P76141 53-317): as the sequence (P76141 53-317 T220A) above, with A168T counted along it

Take `CC(=O)C(=O)[C@@H](O)COP(=O)(O)O` [D5P, phospho-DPD]: the “Effect of D243A mutation on D5P binding affinity” value at C-LsrR D243A is “less affinity for D5P than the wild type”. Moreover, the “Effect of K288A mutation on D5P binding affinity” value at C-LsrR K288A was “less affinity for D5P than the wild type”. Besides, on C-LsrR Q215A, the “Effect of Q215A mutation on D5P binding affinity” value is listed as “moderate”. For the same molecule, the “Effect of T220A mutation on D5P binding affinity” value on C-LsrR T220A is reported as “significant decrease of the binding affinity”. On LsrR [1] (20°C), this molecule showed a ΔH of 0.98 kcal/mol and a ΔS of 23.0 cal/mol/K. For the same molecule, on LsrR [1] (read-out: Kd of LsrR (ITC), ITC, 20°C, one-site binding model), the Kd came out at 1.78 ± 0.13 µM. Also, the equilibrium dissociation constant (Kd) at LsrR [1] (read-out: LsrR-binding affinity (Kd), approximate, rounded summary value) is roughly 2 µM. In addition, at LsrR [2], the “Change of the DLS size distribution of LsrR on addition of ligand” value (shortened to “Change”) was “clearly changed the DLS pattern of LsrR”. In addition, the Agonist or antagonist entry in the assay with LsrR [3] is given as “agonists”.

On to `CCC(=O)C(=O)[C@@H](O)COP(=O)(O)O` [D6P, phospho-ethyl-DPD], for which, in the assay on LsrR [3], the Agonist or antagonist entry is given as “agonists”.

For the molecule `CCCC(=O)C(=O)C(O)COP(=O)(O)O` (stereo not shown) [D7P, phospho-propyl-DPD], in the assay on LsrR [3], the Agonist or antagonist result is “antagonist”.

Consider `O=C[C@H](O)[C@H](O)[C@H](O)COP(=O)(O)O` [R5P, D-ribose 5-phosphate], for which, at C-LsrR, the dissociation constant (Kd) was roughly 1000 µM. Also, the “Change” value on LsrR [2] is given as “did not show any apparent changes in the size distribution”.

`CC(C)CC(=O)C(=O)[C@@H](O)CO` [isobutyl-DPD]: the Effect on biofilms entry with E. coli biofilms was “dramatically reduced biofilm formation and cleared extant biofilms”. Moreover, the “Effect on QS signaling” value (in assay [4]; in the assay with QS signaling in E. coli) was “attenuated QS signaling” in each case.

With phospho-isobutyl DPD [D8P], at LsrR [1] (20°C), the ΔH came out at 5.3 kcal/mol and the ΔS stood at 11.2 cal/mol/K. In addition, on LsrR [2], the “Change” value is given as “did not show any apparent changes in the size distribution”. For the same molecule, in the assay with LsrR [3], the Agonist or antagonist entry is on record as “antagonist” and the “Inhibition of LsrR / QS signal transduction” value is “very potent inhibitor”.
